From patent publication US20180291335A1, “MODIFIED POLYNUCLEOTIDES FOR ALTERING CELL PHENOTYPE” (ModernaTX, Inc., priority 2012, published 2018)

How the values were obtained:
Balb-C mice [1] = experiment: In vivo screening of luciferase modified mRNA, whole-body bioluminescence; conditions: subcutaneous; for Luciferase expression (photon/second): 42 to 103 ug mRNA in 1×PBS, imaged 8 hours after dosing, total flux of entire mouse
Procedure: (§1) A control of PBS was also tested. The dosages of the modified luciferase mRNA is also outlined in Table 22. 8 hours after dosing the mice were imaged to determine luciferase expression. Twenty minutes prior to imaging, mice were injected intraperitoneally with a D-luciferin solution at 150 mg/kg. Animals were then anesthetized and images were acquired with an IVIS Lumina II imaging system (Perkin Elmer). Bioluminescence was measured as total flux (photons/second) of the entire mouse.

HeLa cells [2] = experiment: 2′Fluoro luciferase mRNA transfection in HeLa cells; type: cell-based, human; conditions: 83 ng 2′fluoro-containing luciferase RNA, 18 to 22 hours
Procedure: The 2′Fluoro-modified mRNA were then transfected into HeLa cells to assess protein production in a cell context and the same mRNA were also assessed in a cell-free rabbit reticulocyte system. A control of unmodified luciferase (natural luciferase) was used for both transcription experiments, a control of untreated and mock transfected (Lipofectamine 2000 alone) were also analyzed for the HeLa transfection and a control of no RNA was analyzed for the rabbit reticulysates.
For the HeLa transfection experiments, the day before transfection, 20,000 HeLa cells (ATCC no. CCL-2; Manassas, Va.) were harvested by treatment with Trypsin-EDTA solution (LifeTechnologies, Grand Island, N.Y.) and seeded in a total volume of 100 ul EMEM medium (supplemented with 10% FCS and 1× Glutamax) per well in a 96-well cell culture plate (Corning, Manassas, Va.). The cells were grown at […] in 5% CO2 atmosphere overnight. […] Lipofectamine 2000 (LifeTechnologies, Grand Island, N.Y.) was used as transfection reagent and 0.2 ul were diluted in 10 ul final volume of OPTI-MEM. […] The lysate volumes were adjusted or diluted until no more than 2 mio relative light units (RLU) per well were detected for the strongest signal producing samples and the RLUs for each chemistry tested are shown in Table 24. The plate reader was a BioTek Synergy H1 (BioTek, Winooski, Vt.). […]

[3] = system: Rabbit Reticulocyte Lysate; experiment: 2′Fluoro luciferase mRNA in rabbit reticulocyte lysate assay; type: biochemical; conditions: Rabbit reticulysates, 250 ng luciferase mRNA, 60 minutes
Procedure: For the rabbit reticulocyte lysate assay, 2′-fluoro-containing luciferase mRNA were diluted in sterile nuclease-free water to a final amount of 250 ng in 10 ul and added to 40 ul of freshly prepared Rabbit Reticulocyte Lysate and the in vitro translation reaction was done in a standard 1.5 mL polypropylene reaction tube (Thermo Fisher Scientific, Waltham, Mass.) at 30° C. in a dry heating block. The translation assay was done with the Rabbit Reticulocyte Lysate (nuclease-treated) kit (Promega, Madison, Wis.) according to the manufacturer's instructions. The reaction buffer was supplemented with a one-to-one blend of provided amino acid stock solutions devoid of either Leucine or Methionine resulting in a reaction mix containing sufficient amounts of both amino acids to allow effective in vitro translation. […]
Aliquots of the in vitro translation reaction containing luciferase modified RNA were transferred to white opaque polystyrene 96-well plates (Corning, Manassas, Va.) and combined with 100 ul complete luciferase assay solution (Promega, Madison, Wis.). The volumes of the in vitro translation reactions were adjusted or diluted until no more than 2 mio relative light units (RLUs) per well were detected for the strongest signal producing samples and the RLUs for each chemistry tested are shown in Tables 24 and 25. The plate reader was a BioTek Synergy H1 (BioTek, Winooski, Vt.). […]

HeLa cells [4] = experiment: Luciferase in HeLa cells using a combination of modifications; type: cell-based, human; conditions: 83 ng luciferase modified RNA, 18 to 22 hours
Procedure: To evaluate using of 2′fluoro-modified mRNA in combination with other modification a series of mRNA were transcribed using either wild-type T7 polymerase (non-fluoro-containing compounds) or using mutant T7 polymerases (fluyoro-containing compounds) as described in Example 86. All modified mRNA were tested by in vitro transfection in HeLa cells.
(§2) The day before transfection, 20,000 HeLa cells (ATCC no. CCL-2; Manassas, Va.) were harvested by treatment with Trypsin-EDTA solution (LifeTechnologies, Grand Island, N.Y.) and seeded in a total volume of 100 ul EMEM medium (supplemented with 10% FCS and 1× Glutamax) per well in a 96-well cell culture plate (Corning, Manassas, Va.). The cells were grown at […] in 5% CO2 atmosphere overnight. […] Lipofectamine 2000 (LifeTechnologies, Grand Island, N.Y.) was used as transfection reagent and 0.2 ul were diluted in 10 ul final volume of OPTI-MEM. After 5 minutes of incubation at room temperature, both solutions were combined and incubated an additional 15 minute at room temperature. Then the 20 ul combined solution was added to the 100 ul cell culture medium containing the HeLa cells and incubated at room temperature.
(§3) After 18 to 22 hours of incubation cells expressing luciferase were lysed with 100 ul of Passive Lysis Buffer (Promega, Madison, Wis.) according to manufacturer instructions. Aliquots of the lysates were transferred to white opaque polystyrene 96-well plates (Corning, Manassas, Va.) and combined with 100 ul complete luciferase assay solution (Promega, Madison, Wis.). The lysate volumes were adjusted or diluted until no more than 2 mio relative light units (RLU) per well were detected for the strongest signal producing samples and the RLUs for each chemistry tested are shown in Table 26. The plate reader was a BioTek Synergy H1 (BioTek, Winooski, Vt.). The background signal of the plates without reagent was about 200 relative light units per well.

HeLa cells [5] = experiment: G-CSF modified mRNA transfected in HeLa cells, G-CSF ELISA; type: cell-based, human; conditions: HeLa cells, ELISA
Outline: (§4)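 Human G-CSF mRNAs bearing various chemical modifications, made with a mutant T7 polymerase, were either transfected into HeLa cells or added to rabbit reticulocyte lysate at 250 ng mRNA. G-CSF protein was quantified by ELISA.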

Balb-C mice [6] = experiment: In vivo screening of combination luciferase modified mRNA, whole-body bioluminescence; conditions: subcutaneous, 100 ug mRNA in 1×PBS, imaged 8 hours after dosing
Procedure: as §1

[7] = system: human embryonic kidney 293 (HEK293) cells; experiment: Cytotoxicity of NTPs, CYTO TOX-GLO assay; type: cell-based
Procedure: The cytotoxicity of natural and modified nucleoside triphosphates (NTPs) alone or in combination with other bases, was analyzed in human embryonic kidney 293 (HEK293) cells in the absence of transfection reagent. […] 10 ul of the NTPs outlined in Table 12 were combined with 10 ul of lipid dilution and incubated for 30 minutes to form a complex before 80 ul of the HEK293 cell suspension was added to the NTP complex.
Natural and modified NTPs were transfected at a concentration of 2.1 nM, 21 nM, 210 nM, 2.1 um, 21 uM, 210 um or 2.1 mM. NTPs in combination were transfected at a total concentration of NTPs of 8.4 nM, 84 nM, 840 nM, 8.4 uM, 84 uM, 840 uM and 8.4 mM. […] The cytotoxicity of the NTPs and the modified G-CSF mRNA was assayed at 4, 24, 48 and 72 hours post addition to the HEK293 cells using a CYTO TOX-GLO™ assay from Promega (Madison, Wis.) following the manufacturer protocol except pippeting was used for lysing the cells instead of shaking the plates.

[8] = system: peripheral blood mononuclear cells (PBMC); experiment: In vitro screening in PBMC: G-CSF protein expression by ELISA; type: cell-based, human
Outline: (§5)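 Supernatants harvested, frozen, then assayed by ELISA.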

interferon-alpha (IFN-α) = experiment: In vitro screening in PBMC: interferon-alpha induction by ELISA; type: cell-based, human
Outline: as §5

[9] = system: tumor necrosis factor alpha (TNF-α); experiment: In vitro screening in PBMC: tumor necrosis factor alpha induction by ELISA; type: cell-based, human
Outline: as §5

HeLa cells [10] = experiment: In vitro screening in HeLa cells, luciferase modified RNA; type: cell-based, human; conditions: HeLa cells, 83 ng luciferase modified RNA, 18 to 22 hours
Procedure: as §2
as §3, with “19.” for “26.”

[11] = system: Rabbit Reticulocyte Lysate; experiment: In vitro screening in rabbit reticulocyte lysates, luciferase mRNA translation; type: biochemical; conditions: 250 ng luciferase mRNA, 60 minutes, 30° C.
Procedure: The diluted luciferase was added to 40 ul of freshly prepared Rabbit Reticulocyte Lysate and the in vitro translation reaction was done in a standard 1.5 mL polypropylene reaction tube (Thermo Fisher Scientific, Waltham, Mass.) at 30° C. in a dry heating block. The translation assay was done with the Rabbit Reticulocyte Lysate (nuclease-treated) kit (Promega, Madison, Wis.) according to the manufacturer's instructions. The reaction buffer was supplemented with a one-to-one blend of provided amino acid stock solutions devoid of either Leucine or Methionine resulting in a reaction mix containing sufficient amounts of both amino acids to allow effective in vitro translation.
After 60 minutes of incubation, the reaction was stopped by placing the reaction tubes on ice. Aliquots of the in vitro translation reaction containing luciferase modified RNA were transferred to white opaque polystyrene 96-well plates (Corning, Manassas, Va.) and combined with 100 ul complete luciferase assay solution (Promega, Madison, Wis.). The volumes of the in vitro translation reactions were adjusted or diluted until no more than 2 mio relative light units (RLUs) per well were detected for the strongest signal producing samples and the RLUs for each chemistry tested are shown in Table 20. The plate reader was a BioTek Synergy H1 (BioTek, Winooski, Vt.). The background signal of the plates without reagent was about 200 relative light units per well.

rabbit reticulysates = experiment: G-CSF modified mRNA in rabbit reticulysates, G-CSF ELISA; type: biochemical; conditions: 250 ng of modified mRNA
Outline: as §4

[12] = PBMC Donor 1, 500 ng G-CSF mRNA
[13] = PBMC Donor 2, 500 ng G-CSF mRNA
[14] = PBMC Donor 3, 500 ng G-CSF mRNA

Compound: 2′-flurorouridine: Luciferase mRNA (SEQ ID NO: 409) fully modified with 2′-fluorouridine
- Luciferase expression (photon/second) (Balb-C mice [1]): 3.47E+05 photon/second
- in vivo activity (Balb-C mice [1]; luciferase mRNA, result in words): exception
- RLU (HeLa cells [2]): 6767.5 RLU
- RLU [3]: 258 RLU
- RLU (HeLa cells [4]): 305 RLU
- G-CSF protein (pg/ml) HeLa cells (HeLa cells [5]; combination chemistries): 0 pg/mL

Compound: 5-methylcytidine/where 50% of the uridine is replaced with 2-thiouridine: Luciferase mRNA (SEQ ID NO: 409) with 5-methylcytidine and 50% of the uridine replaced with 2-thiouridine
- Luciferase expression (photon/second) (Balb-C mice [6]): 2.39E+06 photon/second
- RLU (HeLa cells [4]): 41,601 RLU

Compound: O=c1[nH]cc([C@@H]2O[C@H](CO)[C@@H](O)[C@H]2O)c(=O)[nH]1 [Pseudouridine]
- toxicity as compared to the untreated cells [7]: not toxic
- G-CSF Protein Expression [8, 12]: 2477 pg/mL
- G-CSF Protein Expression [8, 13]: 1,909 pg/ml
- G-CSF Protein Expression [8, 14]: 1,498 pg/ml
- IFN-α Expression (interferon-alpha (IFN-α); [12]): 120 pg/mL
- IFN-α Expression (interferon-alpha (IFN-α); [13]): 77 pg/mL
- IFN-α Expression (interferon-alpha (IFN-α); [14]): 171 pg/mL
- cytokine induction (interferon-alpha (IFN-α); PBMC, G-CSF mRNA, result in words): detectable cytokine induction which is above background
- TNF-α Expression [9, 12]: 36 pg/mL
- TNF-α Expression [9, 13]: 81 pg/mL
- TNF-α Expression [9, 14]: 126 pg/mL
- RLU (HeLa cells [10]): 655,632 RLU
- RLU [11]: 587,795 RLU
- Luciferase expression (photon/second) (Balb-C mice [1]): 1.36E+07 photon/second
- G-CSF protein (pg/ml) HeLa cells (HeLa cells [5]; G-CSF mRNA): 1,150,909 pg/ml
- G-CSF protein (pg/ml) Rabbit reticulysates cells (rabbit reticulysates): 147,875 pg/ml
